{"source": "patent US10507211B2", "about": "“Treatment for hereditary neuropathy with liability to pressure palsies (HNPP)” (Vanderbilt University, priority 2016, dated 2019)", "key": {"[1]": {"conditions": "reference [23]; cited from earlier work"}, "F-actin": {"tested_on": "F-actin", "assay": "F-actin staining of teased nerve fibers with fluorescent phalloidin in treated Pmp22+/− mice", "format": "in vivo, mouse", "conditions": "versus vehicle", "protocol": "This method was modified from the published study. In brief, sciatic nerves were fixed, embedded in paraffin, and cut into 5 μm-thick slices. Sections were incubated overnight with primary antibodies at 4° C. After washing, sections were stained for 1 hour with secondary antibodies. The stained slides were examined under a Leica fluorescent microscope (Leica DM6000B). For teased nerve stains, sciatic nerves were fixed in 4% paraformaldehyde (PFA) overnight and teased into individual fibers on glass slides. […] For newly formed F-actin staining, as described, the existing F-actin in sciatic nerve explants was saturated with a cell-permeable actin-binding compound, jasplakinolide (Cat#420127, Millipore), at 1 μM in culture media. After washing with PBS, the explants were incubated in a drug-free media for 6 hours at 37° C. The explants were fixed in 4% PFA and teased for F-actin staining using fluorescent phalloidin (1:400, Cat# R415, Life Technologies)."}, "Pmp22+/− mice [2]": {"tested_on": "Pmp22+/− mice", "assay": "Nerve conduction study (NCS) on sciatic nerves of treated Pmp22+/− mice", "conditions": "for CV(m/s): 0.25 mg/kg/day I.P., n = 8", "description": "(§2) Thus, Pmp22+/− mice were treated with 0.25, 0.5, 1.0 mg/kg PF3758309 or vehicle—saline (FIG. 7 and Table 1). […] Injection started at age of postnatal day 7.\nIn FIG. 7, Panel B, CMAP amplitudes were measured prior to the treatment.\nNCS was previously described [8]. […] A skilled technician gets NCS done in each mouse within 6 minutes. […] CMAP was recorded from the intrinsic foot muscle using needle electrodes. Stimulation electrodes were positioned percutaneously at the sciatic notch and adjacent to the tibial nerve at the ankle. CMAP amplitudes were measured from baseline to the peak of negative deflection."}, "Pmp22+/− mice [3]": {"tested_on": "Pmp22+/− mice", "assay": "Mouse tolerance to PF3758309 (i.p. daily)", "format": "in vivo", "from_the_text": "Pmp22+/− mice were backcrossed with C57Bl6J mice (Jackson Lab) for more than 10 generations to reach congenic. Mice were genotyped as described. The congenic Pmp22+/− mice have been extensively characterized.\nFor PAK1 inhibitor (PF3758309) injections, Pmp22+/− mice were randomized into vehicle and treated groups. Based on the power calculation of variations derived from mouse compound nerve action potentials, 7 mice for each group would have a 92% chance to detect a significant difference. PF-3758309 (Cat# CT-PF0375, ChemieTek) was dissolved in normal saline for intraperitoneal injection (i.p.) daily."}, "PAK1 [4]": {"molecular_target": "T1, PAK1 (Mus musculus, UniProt O88643)", "assay": "Western blot of phosphorylated PAK1 (T212) in sciatic nerves of treated Pmp22+/− mice", "conditions": "0.25 mg/kg/day I.P., n = 8", "description": "The specificity of total PAK1, S144, and T212 antibodies was verified using Pak1+/+ and Pak1−/− nerves.\n(§3) Injection started at age of postnatal day 7. […] Using teased nerve fibers, the percentages of nerve fibers with tomacula, a key pathology of HNPP, was quantified, as described [8].\nSamples were homogenized for protein isolation. […] Samples were loaded into SDS-PAGE gels and transferred to a PVDF membrane. The membranes were blotted with 5% non-fat milk and incubated overnight at 4° C. with primary antibodies, and followed by secondary antibodies. The immune complexes were detected by the enhanced chemoilluminescence (Cat# NEL103001, Perkin Elmer). In some cases, the blots were stripped and re-probed with additional antibodies. Quantification of band intensity was performed by the ImageJ software (rsbweb.nih.gov/ij/)."}, "Pmp22+/− mice [5]": {"tested_on": "Pmp22+/− mice", "assay": "Evaluation of myelin permeability with 3 kDa Dextran in sciatic nerve fascicles of treated Pmp22+/− mice", "conditions": "3-month-old Pmp22+/− mice; 0.25 mg/kg; versus vehicle; P<0.001", "description": "With reference to Panel E of FIG. 7, sciatic nerve fascicles from 3-month-old Pmp22+/− mice were incubated with 3 kDa Dextran, as described [3], to evaluate the myelin permeability. Individual teased nerve fibers were imaged. Arrowheads point to the node of Ranvier. […] With reference to Panel F of FIG. 7, fluorescence intensity was quantified by placing a 2.5 μm×2.5 μm interest box 10 μm away from the middle point of the node of Ranvier.\nIn brief, 1 cm sciatic nerve fascicles were submerged in artificial CSF after epineurium removal and sealed at both ends with Vaseline. A 3 kDa Dextran of fluorescence (2 mg/ml, Cat# D3329, Life technologies) was added for one hour incubation at room temperature without oxygenation. After washing, the nerve fascicles were fixed in 4% PFA for 10 minutes and teased into individual nerve fibers on glass slides for fluorescence microscopy. Fluorescence intensity was quantified by placing a 5 μm×5 μm interest box 10 μm away from the middle point of the node of Ranvier."}, "PAK1 [6]": {"molecular_target": "T1, PAK1", "assay": "F-actin and phosphorylated PAK1 in Pak1+/+ and Pak1−/− primary Schwann cell culture", "format": "cell-based", "set-up": "Pak1+/+ and Pak1−/− primary Schwann cell culture; endogenous in cells; host or cells: primary Schwann cells, Pak1+/+ and Pak1-/-", "conditions": "Pak1+/+ Schwann cells; 9 μM for 12 hour", "from_the_text": "(§1) FIG. 8. […] The total actin and GAPDH were used as loading controls."}, "MEK1": {"tested_on": "MEK1", "assay": "Western blot of phosphorylated MEK1 (S298) in sciatic nerves of treated Pmp22+/− mice", "format": "in vivo, mouse", "conditions": "1 week old at start of injection; 0.25 mg/kg/day I.P.; 11 weeks; n = 8", "from_the_text": "Residues in other PAKs could be phosphorylated but cannot be substantiated due to the lack of specific antibodies.\nSamples were homogenized for protein isolation."}, "PAK2": {"molecular_target": "T2, PAK2 (Mus musculus, UniProt Q8CIN4)", "T2 construct": "Pak1+/+ and Pak1−/− primary Schwann cell culture; endogenous in cells; host or cells: primary Schwann cells, Pak1+/+ and Pak1-/-", "T2 sequence (Q8CIN4 whole entry)": "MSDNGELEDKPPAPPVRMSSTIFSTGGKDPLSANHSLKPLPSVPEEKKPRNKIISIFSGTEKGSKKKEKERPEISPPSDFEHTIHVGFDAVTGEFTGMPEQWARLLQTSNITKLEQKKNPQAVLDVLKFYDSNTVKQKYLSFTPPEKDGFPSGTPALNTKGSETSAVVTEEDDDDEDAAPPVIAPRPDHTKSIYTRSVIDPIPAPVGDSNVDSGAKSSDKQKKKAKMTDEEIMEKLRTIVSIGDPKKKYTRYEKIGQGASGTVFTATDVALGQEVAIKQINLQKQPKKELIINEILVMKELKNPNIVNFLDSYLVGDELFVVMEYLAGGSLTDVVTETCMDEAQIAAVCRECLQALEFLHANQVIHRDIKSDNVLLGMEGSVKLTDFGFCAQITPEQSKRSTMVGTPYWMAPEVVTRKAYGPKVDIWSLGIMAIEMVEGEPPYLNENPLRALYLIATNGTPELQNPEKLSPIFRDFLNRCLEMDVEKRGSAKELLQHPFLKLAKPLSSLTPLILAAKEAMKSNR", "assay": "Phosphorylated PAK2 (S20) in primary Schwann cell culture", "format": "cell-based", "conditions": "Schwann cells; 9 μM for 12 hour", "from_the_text": "as §1"}, "claudin-19": {"tested_on": "claudin-19", "assay": "Abnormal claudin-19 staining of paranodes and incisures (tight junctions) in treated Pmp22+/− mice", "conditions": "0.25 mg/kg/day I.P., n = 8", "excerpt": "Paraffin sections of mouse sciatic nerves were stained with antibodies. Percentages of abnormal paranodes or incisures were manually counted [3]. An abnormal paranode or incisurae was defined as the staining was absent in more than a half of normally stained paranodal or incisure territory. […] White dots outline the margin of the nerve fiber, based on its phase-contrast image. […] As shown in Panel E of FIG. 2, teased sciatic nerve fibers of Pmp22+/+ mice at the 3 months of age were stained with antibodies against claudin-19 to show paranodes (quadrant E1) and incisures (arrowhead in quadrant E3).\nas §2\nIn brief, sciatic nerves were fixed, embedded in paraffin, and cut into 5 μm-thick slices. Sections were incubated overnight with primary antibodies at 4° C. After washing, sections were stained for 1 hour with secondary antibodies. The stained slides were examined under a Leica fluorescent microscope (Leica DM6000B). For teased nerve stains, sciatic nerves were fixed in 4% paraformaldehyde (PFA) overnight and teased into individual fibers on glass slides. The slides were dried overnight, reacted with primary antibodies, and followed by secondary antibodies."}, "PAK1 [7]": {"tested_on": "PAK1", "assay": "F-actin and phosphorylated PAK1 in Pak1+/+ and Pak1−/− primary Schwann cell culture", "format": "cell-based", "conditions": "Pak1−/− Schwann cells; 9 μM for 12 hour", "from_the_text": "as §1"}, "Pmp22+/− mice [8]": {"tested_on": "Pmp22+/− mice", "assay": "Percentage of teased nerve fibers with tomacula in treated Pmp22+/− mice", "conditions": "0.25 mg/kg/day I.P.", "excerpt": "as §3\nAnother 14 Pmp22+/− mice (un-injected) were counted."}, "[9]": {"conditions": "1 week old at start of injection, 11 weeks"}, "[10]": {"conditions": "6-11 month age at start of injection, 4 weeks"}}, "note": "Marks after values point to notes of the source that are not given here."}
{"compound": "Cc1nc(Nc2n[nH]c3c2CN(C(=O)N[C@H](CN(C)C)c2ccccc2)C3(C)C)c2sccc2n1", "note": "[PF-3758309]", "values": [{"measurement": "penetration into the nervous system", "setting": "[1]", "result": "penetrated into the nervous system"}, {"measurement": "levels of F-actin", "setting": "F-actin; 0.25 mg/kg i.p. daily for 11 weeks, 3-month-old Pmp22+/− mice", "result": "suppressed"}, {"measurement": "F-actin levels", "setting": "F-actin; mice enrolled at 6-11 months, 0.25 mg/kg", "result": "significantly lower"}, {"measurement": "CMAP amplitude", "setting": "Pmp22+/− mice [2]; 1.00 mg/kg i.p. daily for 11 weeks from postnatal day 7, eight 3-month-old Pmp22+/− mice (Pmp22+/+ 3.2±0.6 mV)", "result": "1.5±0.8", "unit": "mV"}, {"measurement": "decline of CMAP amplitudes", "setting": "Pmp22+/− mice [2]; 0.25, 0.5, 1.0 mg/kg i.p. daily for 11 weeks from postnatal day 7, versus vehicle", "result": "prevented the decline of CMAP amplitudes with all three dosages"}, {"measurement": "CV(m/s)", "setting": "Pmp22+/− mice [2]; [9]", "result": "17.8 ± 3.0", "unit": "m/s"}, {"measurement": "CV(m/s)", "setting": "Pmp22+/− mice [2]; [10]", "result": "19.7 ± 11.1", "unit": "m/s"}, {"measurement": "decrease of CMAP amplitudes over the course of treatment", "setting": "Pmp22+/− mice [2]; mice enrolled at 6-11 months, 0.25 mg/kg, vehicle fell from 1.6±0.7 mV to 0.7±0.2 mV", "result": "completely prevented"}, {"measurement": "mortality and side-effect", "setting": "Pmp22+/− mice [3]; 0.25 mg/kg, treated for 11 weeks", "result": "no increase of mouse mortality and observable side-effect"}, {"measurement": "mice killed", "setting": "Pmp22+/− mice [3]; 2.5 mg/kg or 25 mg/kg i.p. daily, 20 Pmp22+/− mice, within 15 days", "result": "over 50%"}, {"measurement": "body weight", "setting": "Pmp22+/− mice [3]; 2.5 mg/kg or 25 mg/kg i.p. daily, within 15 days", "result": "drastic reduction of body weight"}, {"measurement": "tolerance (body weight, death)", "setting": "Pmp22+/− mice [3]; 0.25, 0.5, 1.0 mg/kg i.p. daily, 11 weeks", "result": "tolerated these doses well with no change of body weight or increase of death"}, {"measurement": "Ratio (T212/PAK1)", "setting": "PAK1 [4]; [9]", "result": "0.61 ± 0.0"}, {"measurement": "Ratio (T212/PAK1)", "setting": "PAK1 [4]; [10]", "result": "0.26 ± 0.1"}, {"measurement": "3 kDa Dextran fluorescence intensity (myelin permeability)", "setting": "Pmp22+/− mice [5]", "result": "significantly decreased"}, {"measurement": "F-actin level", "setting": "PAK1 [6]", "result": "hardly detectable"}, {"measurement": "level of phosphorylated PAK1 (S144)", "setting": "PAK1 [6]", "result": "suppressed"}, {"measurement": "level of phosphorylated PAK1 (T212)", "setting": "PAK1 [6]", "result": "suppressed"}, {"measurement": "Ratio (S298/MEK1)", "setting": "MEK1", "result": "0.39 ± 0.2"}, {"measurement": "level of phosphorylated PAK2 (S20)", "setting": "PAK2", "result": "inhibited"}, {"measurement": "total PAK2 levels", "setting": "PAK2", "result": "not altered"}, {"measurement": "% abnormal Claudin-19 (incisures)", "setting": "claudin-19; incisures, 1 week old at start of injection, 11 weeks", "result": "27.7 ± 4.6 ^b %"}, {"measurement": "% abnormal Claudin-19 (paranodes)", "setting": "claudin-19; [9]", "result": "36.5 ± 18.4 ^a %"}, {"measurement": "% abnormal Claudin-19 (paranodes)", "setting": "claudin-19; [10]", "result": "43.5 ± 13.3 ^a %"}, {"measurement": "F-actin level", "setting": "PAK1 [7]", "result": "failed to change"}, {"measurement": "% Tomacula", "setting": "Pmp22+/− mice [8]; 1 week old at start of injection, 11 weeks, n = 8", "result": "27.3 ± 4.5", "unit": "%"}, {"measurement": "% Tomacula +outlier", "setting": "Pmp22+/− mice [8]; 6-11 month age at start of injection, 4 weeks, outlier included", "result": "25.2 ± 7.5", "unit": "%"}, {"measurement": "% Tomacula −outlier", "setting": "Pmp22+/− mice [8]; 6-11 month age at start of injection, 4 weeks, outlier taken off", "result": "22.8 ± 4.3 ^d %"}]}
